US10172957B2, “Acid-labile lipophilic prodrugs of cancer chemotherapeutic agents” (priority 2011, dated 2019)

Assays:
Assay type in all cases: in vitro ADME
[1] = Stability in human plasma when added in a lipid emulsion (Liposyn); conditions: 37° C.
Method: (§1) HPLC grade Methanol from Fisher (Fair lawn, NJ, USA). Part No: A452-4 (074833). HPLC grade Water from Fisher (Fair lawn, NJ, USA). Part No: W5-4 (073352). Drug-free mouse, rat and human plasmas were purchased from Innovative Research Inc. (Southfield, Mich., USA). LIPOSYN® I.V. (30% soybean oil and egg yolk phospholipids, Abbott Laboratories) Fat Emulsion from Hospira, Inc. (Lake Forest, Ill.).
(§2) Chromatographic separation of the compounds was performed on a Waters Acquity UPLC™ using a BEH C18 column (1.7 μm, 2.1×50 mm). The mobile phase consisted of Methanol: 0.1% Formic acid (80:20). The flow rate was 0.3 ml/min; the sample injection volume was 5 μL, resulting in a 3 minute run time.
(§3) The MS instrumentation consisted of a Waters Micromass Quattro Micro™ triple-quadrupole system (Manchester, UK). The MS system was controlled by a 4.0 version of MassLynx software. Ionization was performed in the positive electrospray ionization mode. MS/MS conditions were the following: capillary voltage 3.02 kV; cone voltage 50 v; extractor voltage 5 v; and RF lens voltage 0.5 v. The source and desolvation temperatures were 100° C. and 400° C. respectively, and the desolvation and cone gas flow were 400 and 30 L/hr, respectively.
(§4) The selected mass-to-charge (m/z) ratio transitions of the ART 198 used in the selected ion monitoring (SIM) were: for ART 198, 617 (M+K)^+, for ART 273, 589 (M+K)^+, for ART 488, 913 (M+Na)^+, and for ART 489, 957 (M+Na)^+. The dwell time was set at 200 msec. MS conditions were optimized using direct infusion of standard solutions prepared in methanol and delivered by a syringe pump at a flow rate of 20 μL/min.
(§5) Samples of 100 μL were collected at time points of 0, 15, 30, 45, 60, 75, 90, 105, 120, 135, 150, 165, 180, 210, 240, 300, 360 and 480 minutes respectively and the reaction was terminated with methanol. In a separate set of experiments the acid labile, lipophilic molecular conjugates were dissolved in a small amount of ethanol and diluted into a lipid emulsion (Liposyn®) and added to mouse and human plasma before incubation and the hydrolysis of the conjugates was similarly measured. Collected plasma samples of 100 μL containing drug were placed in separate Eppendorf micro centrifuge tubes for processing. Methanol (200 μL) was added to extract the drug using the protein precipitation technique. The micro tubes were then vortex mixed for 10 minutes and centrifuged for 15 minutes at a speed of 10,000 rpm (Eppendorf 5415C centrifuge). The supernatant was collected and filtered using a 0.45 μm filter (Waters 13 mm GHP 0.45 μm) before analysis.
(§6) Samples were collected at various times and the percent remaining of the acid labile, lipophilic molecular conjugate of the cancer chemotherapeutic agent was determined along with the percent of the chemotherapeutic agent released from the hydrolysis of the conjugate.

[2] = Stability in mouse plasma at 37° C.
Method: The stability of the acid labile, lipophilic molecular conjugates to hydrolysis in plasma was evaluated to determine their potential to release the active cancer chemotherapeutic agents into systemic circulation and thereby cause general off target toxicity (“side effects”). The conjugates were incubated with plasma of mouse, rat and human origin.
as §1
Each drug (ART 198, ART 273, ART 488 and ART 489) was prepared in triplicate in mouse, rat and human plasma individually at […] concentration and vortexed for 1 minute and placed in a water bath at 37° C. at a shake rate of 75 per minute. Samples were drawn at time points of 0, 15, 30, 45, 60, 75, 90, 105, 120, 135, 150, 165, 180, 210, 240, 300, 360 and 480 minutes.
as §2, §3, §4, §5
The weighted linear least-squares (1/x) regression was used as the mathematical model. The coefficient (r) for the compounds ranged from 0.9925 to 0.9999. The calibration range was selected according to the concentrations anticipated in the samples to be determined.
as §6

[3] = Stability in mouse plasma when added in a lipid emulsion (Liposyn); conditions: 37° C.
Method: as §1, §2, §3, §4, §5, §6

CCCCCCCCCCCCCCCC1OCC(COC(=O)O[C@@H]2C(=O)C=C(C)[C@@H]3C[C@H]4OC(=O)C(OC(=O)CC(O)(C(C)C)C(C)C)C5[C@@H](C)[C@@H](O)[C@@]6(O)OC[C@@]54C6[C@@]23C)O1 (stereo partly shown) [ART 488]
percent remaining of initial drug ([1]; 0 min): 100% | percent remaining of initial drug ([1]; 15 min): 98.3% | percent remaining of initial drug ([1]; 30 min): 97.3% | percent remaining of initial drug ([1]; 45 min): 96.1% | percent remaining of initial drug ([1]; 60 min): 95.8% | percent remaining of initial drug ([1]; 75 min): 95.3% | percent remaining of initial drug ([1]; 90 min): 95.6% | percent remaining of initial drug ([1]; 105 min): 94.6% | percent remaining of initial drug ([1]; 120 min): 94.5% | percent remaining of initial drug ([1]; 135 min): 92.5% | percent remaining of initial drug ([1]; 150 min): 92.2% | percent remaining of initial drug ([1]; 165 min): 91.9% | percent remaining of initial drug ([1]; 180 min): 91.0% | percent remaining of initial drug ([1]; 210 min): 91.0% | percent remaining of initial drug ([1]; 240 min): 90.7% | percent remaining of initial drug ([1]; 300 min): 90.7% | percent remaining of initial drug ([1]; 360 min): 90.2% | percent remaining of initial drug ([1]; 480 min): 88.1% | percent remaining of initial drug ([2]; 0 min): 100% | percent remaining of initial drug ([2]; 15 min): 91.2% | percent remaining of initial drug ([2]; 30 min): 85.7% | percent remaining of initial drug ([2]; 45 min): 81.3% | percent remaining of initial drug ([2]; 60 min): 75.0% | percent remaining of initial drug ([2]; 75 min): 73.2% | percent remaining of initial drug ([2]; 90 min): 65.2% | percent remaining of initial drug ([2]; 105 min): 58.8% | percent remaining of initial drug ([2]; 120 min): 56.4% | percent remaining of initial drug ([2]; 135 min): 56.2% | percent remaining of initial drug ([2]; 150 min): 55.0% | percent remaining of initial drug ([2]; 165 min): 53.7% | percent remaining of initial drug ([2]; 180 min): 53.7% | percent remaining of initial drug ([2]; 210 min): 52.4% | percent remaining of initial drug ([2]; 240 min): 50.3% | percent remaining of initial drug ([2]; 300 min): 48.2% | percent remaining of initial drug ([2]; 360 min): 45.6% | percent remaining of initial drug ([3]; 0 min): 100% | percent remaining of initial drug ([3]; 15 min): 98.7% | percent remaining of initial drug ([3]; 30 min): 98.2% | percent remaining of initial drug ([3]; 45 min): 97.4% | percent remaining of initial drug ([3]; 60 min): 96.9% | percent remaining of initial drug ([3]; 75 min): 97.0% | percent remaining of initial drug ([3]; 90 min): 98.3% | percent remaining of initial drug ([3]; 105 min): 96.0% | percent remaining of initial drug ([3]; 120 min): 95.2% | percent remaining of initial drug ([3]; 135 min): 93.8% | percent remaining of initial drug ([3]; 150 min): 93.1% | percent remaining of initial drug ([3]; 165 min): 92.9% | percent remaining of initial drug ([3]; 180 min): 91.8% | percent remaining of initial drug ([3]; 210 min): 91.7% | percent remaining of initial drug ([3]; 240 min): 91.4% | percent remaining of initial drug ([3]; 300 min): 91.3% | percent remaining of initial drug ([3]; 360 min): 90.0%

COC(=O)[C@@]12OC[C@]34[C@H]([C@@H](O)[C@@H]1O)[C@@]1(C)CC(=O)C(O)=C(C)[C@@H]1C[C@H]3OC(=O)C(OC(=O)CC1(O)CCCCC1)[C@@H]24 (stereo partly shown) [ART 198]
percent remaining of initial drug ([2]; 0 min): 100% | percent remaining of initial drug ([2]; 15 min): 96.8% | percent remaining of initial drug ([2]; 30 min): 94.0% | percent remaining of initial drug ([2]; 45 min): 85.5% | percent remaining of initial drug ([2]; 60 min): 82.0% | percent remaining of initial drug ([2]; 75 min): 72.6% | percent remaining of initial drug ([2]; 90 min): 66.9% | percent remaining of initial drug ([2]; 105 min): 63.2% | percent remaining of initial drug ([2]; 120 min): 59.2% | percent remaining of initial drug ([2]; 135 min): 57.4% | percent remaining of initial drug ([2]; 150 min): 51.9% | percent remaining of initial drug ([2]; 165 min): 46.2% | percent remaining of initial drug ([2]; 180 min): 43.0% | percent remaining of initial drug ([2]; 210 min): 39.3% | percent remaining of initial drug ([2]; 240 min): 35.4% | percent remaining of initial drug ([2]; 300 min): 32.4% | percent remaining of initial drug ([2]; 360 min): 28.8%

CCCCCCCCCCCCCCCC1OCC(COC(=O)OC2=C(C)[C@@H]3C[C@H]4OC(=O)C(OC(=O)CC5(O)CCCCC5)[C@H]5[C@]6(C(=O)OC)OC[C@]45[C@H]([C@@H](O)[C@@H]6O)[C@@]3(C)CC2=O)O1 (stereo partly shown) [ART 489]
percent remaining of initial drug ([1]; 0 min): 100% | percent remaining of initial drug ([1]; 15 min): 98.4% | percent remaining of initial drug ([1]; 30 min): 93.9% | percent remaining of initial drug ([1]; 45 min): 92.7% | percent remaining of initial drug ([1]; 60 min): 88.2% | percent remaining of initial drug ([1]; 75 min): 87.9% | percent remaining of initial drug ([1]; 90 min): 87.5% | percent remaining of initial drug ([1]; 105 min): 86.4% | percent remaining of initial drug ([1]; 120 min): 86.4% | percent remaining of initial drug ([1]; 135 min): 84.7% | percent remaining of initial drug ([1]; 150 min): 84.6% | percent remaining of initial drug ([1]; 165 min): 83.7% | percent remaining of initial drug ([1]; 180 min): 82.9% | percent remaining of initial drug ([1]; 210 min): 82.0% | percent remaining of initial drug ([1]; 240 min): 81.4% | percent remaining of initial drug ([1]; 300 min): 80.2% | percent remaining of initial drug ([1]; 360 min): 78.2% | percent remaining of initial drug ([1]; 480 min): 76.6% | percent remaining of initial drug ([2]; 0 min): 100% | percent remaining of initial drug ([2]; 15 min): 95.7% | percent remaining of initial drug ([2]; 30 min): 88.6% | percent remaining of initial drug ([2]; 45 min): 84.8% | percent remaining of initial drug ([2]; 60 min): 79.2% | percent remaining of initial drug ([2]; 75 min): 78.1% | percent remaining of initial drug ([2]; 90 min): 70.1% | percent remaining of initial drug ([2]; 105 min): 68.0% | percent remaining of initial drug ([2]; 120 min): 64.1% | percent remaining of initial drug ([2]; 135 min): 63.2% | percent remaining of initial drug ([2]; 150 min): 59.4% | percent remaining of initial drug ([2]; 165 min): 54.7% | percent remaining of initial drug ([2]; 180 min): 51.6% | percent remaining of initial drug ([2]; 210 min): 50.3% | percent remaining of initial drug ([2]; 240 min): 47.5% | percent remaining of initial drug ([2]; 300 min): 41.1% | percent remaining of initial drug ([2]; 360 min): 38.1% | percent remaining of initial drug ([3]; 0 min): 100% | percent remaining of initial drug ([3]; 15 min): 98.0% | percent remaining of initial drug ([3]; 30 min): 97.9% | percent remaining of initial drug ([3]; 45 min): 97.4% | percent remaining of initial drug ([3]; 60 min): 91.4% | percent remaining of initial drug ([3]; 75 min): 90.3% | percent remaining of initial drug ([3]; 90 min): 87.9% | percent remaining of initial drug ([3]; 105 min): 80.7% | percent remaining of initial drug ([3]; 120 min): 80.4% | percent remaining of initial drug ([3]; 135 min): 79.9% | percent remaining of initial drug ([3]; 150 min): 79.2% | percent remaining of initial drug ([3]; 165 min): 78.7% | percent remaining of initial drug ([3]; 180 min): 78.2% | percent remaining of initial drug ([3]; 210 min): 75.6% | percent remaining of initial drug ([3]; 240 min): 74.7% | percent remaining of initial drug ([3]; 300 min): 73.7% | percent remaining of initial drug ([3]; 360 min): 73.0%
